# Literature values in patent US20230107398A1, “IMMEDIATE RELEASE FORMULATIONS OF d-LYSERGIC ACID DI[…] THERAPEUTIC APPLICATIONS” (Mind Medicine, Inc., priority 2021, published 2023).
# Details: room temperature
smiles,measurement,value
"CCN(CC)C(=O)[C@@H]1C=C2c3cccc4[nH]cc(c34)C[C@H]2N(C)C1 [LSD, 9,10-didehydro-N,N-diethyl-6-methylergoline-8β-carboxamide]",Stability in oral solution,not stable
